Laboratory results: patent publication US20050209157A1, “Short bioactive peptides and methods for their use” (priority 2001, published 2005)
Residues, ends and D or L forms follow the SMILES beside them. No end group written: not given here.

Key:
[1] = test system: Pseudomonas aeruginosa ATCC 9027; experiment: Antimicrobial assay I, MIC by OD measurement; assay type: cell-based; settings: 37° C. for 24 hours, absorbance 620 nm
[2] = test system: Staphylococcus aureus ATCC 6538; experiment: Antimicrobial assay I, MIC by OD measurement; assay type: cell-based; settings: 37° C. for 24 hours, absorbance 620 nm
[3] = test system: yeast (Saccharomyces cerevisiae); experiment: Antimicrobial assay I, yeast assay in RPMI 1640; assay type: cell-based; settings: RPMI 1640 media
[4] = test system: BMKC; experiment: Anti-cancer assay, MTT, LD50; assay type: cell-based; settings: BMKC cloned melanoma line, 24 hours with peptide
Excerpt: (§1) Numbers are LD50 values (μg/mL).

[5] = test system: H1299; experiment: Anti-cancer assay, MTT, LD50; assay type: cell-based; settings: 24 hours with peptide, lung large cell carcinoma
Excerpt: as §1

[6] = test system: HeLaS3; experiment: Anti-cancer assay, MTT, LD50; assay type: cell-based; settings: 24 hours with peptide, cervical carcinoma
Excerpt: as §1

[7] = test system: MCF7; experiment: Anti-cancer assay, MTT, LD50; assay type: cell-based; settings: MCF7 breast adenocarcinoma line, MTT, 24 hours with peptide
Excerpt: as §1

[8] = test system: PC3; experiment: Anti-cancer assay, MTT, LD50; assay type: cell-based; settings: 24 hours with peptide, prostate adenocarcinoma
Excerpt: as §1

[9] = test system: SW480; experiment: Anti-cancer assay, MTT, LD50; assay type: cell-based; settings: SW480 colon adenocarcinoma line, 24 hours with peptide
Excerpt: as §1

[10] = test system: human red blood cells (RBC); experiment: in vitro; assay type: cell-based; settings: hemolytic assay, concentration at 50% hemolysis, 1 hour at 37° C.
[11] = test system: WI38; settings: MTT, 24 hours with peptide; for WI38 LD50: normal fibroblast line; for LD50 WI38: WI38 normal lung fibroblast line
[12] = in vitro; settings: human, WI38 normal lung fibroblast cells, LD50 WI38, WI38 normal lung fibroblast line, MTT, 24 hours with peptide

Molecule	paerug9027 (MIC) [1]	staph6538 (MIC) [2]	yeast (MIC or MFC) [3]	LD50 BMKC [4]	H1299 LD50 [5]	HeLaS3 LD50 [6]	LD50 MCF7 [7]	PC3 LD50 [8]	LD50 SW480 [9]	LD50 [10]	WI38 LD50 [11]	LD50 WI38 [11]	CC50 at 24 h [12]
FAKLLAKAFKKAL-NH2 [P114, FAKLLAKAFKKAL-NH2]	15 µg/mL	50 µg/mL	100 µg/mL	> (> indicates greater than 1000)	> (> indicates greater than 1000)	> (> indicates greater than 1000)	730 µg/mL	> (> indicates greater than 1000)	> (> indicates greater than 1000)	> (> indicates greater than 1000)	> (> indicates greater than 1000)	> (> indicates greater than 1000)	–
FALALKALKK-NH2 [P169]	100 µg/mL	100 µg/mL	100 µg/mL	530 µg/mL	640 µg/mL	> (> indicates greater than 1000)	510 µg/mL	> (> indicates greater than 1000)	> (> indicates greater than 1000)	> (> indicates greater than 1000)	> (> indicates greater than 1000)	> (> indicates greater than 1000)	–
FAKGVGKVGKKAL-NH2 [P137, FAKGVGKVGKKAL-NH2]	> (> indicates greater than 200 μg/mL)	> (> indicates greater than 200 μg/mL)	> (> indicates greater than 200 μg/mL)	> (> indicates greater than 1000)	> (> indicates greater than 1000)	> (> indicates greater than 1000)	> (> indicates greater than 1000)	> (> indicates greater than 1000)	> (> indicates greater than 1000)	> (> indicates greater than 1000)	> (> indicates greater than 1000)	> (> indicates greater than 1000)	–
MPKWKVFKKIEKVGRNIRNGIVKAGPAIAVLGEAKALG-OH [P5, reference compound]	50 µg/mL	100 µg/mL	> (> indicates greater than 200 μg/mL)	–	–	–	–	–	–	> (> indicates greater than 1000)	–	–	–
CC(C)C[C@H](NC(=O)[C@H](C)NC(=O)[C@@H](N)Cc1ccccc1)C(=O)N[C@@H](C)C(N)=O [P183, FALA-NH2] (H-FALA-NH2; N-terminus assumed)	100 µg/mL	200 µg/mL	200 µg/mL	> (> indicates greater than 1000)	> (> indicates greater than 1000)	> (> indicates greater than 1000)	> (> indicates greater than 1000)	> (> indicates greater than 1000)	> (> indicates greater than 1000)	> (> indicates greater than 1000)	> (> indicates greater than 1000)	> (> indicates greater than 1000)	–
FAFGKGIGKVGKKLL-NH2 [P133]	> (> indicates greater than 200 μg/mL)	> (> indicates greater than 200 μg/mL)	> (> indicates greater than 200 μg/mL)	> (> indicates greater than 1000)	> (> indicates greater than 1000)	> (> indicates greater than 1000)	> (> indicates greater than 1000)	> (> indicates greater than 1000)	> (> indicates greater than 1000)	> (> indicates greater than 1000)	> (> indicates greater than 1000)	> (> indicates greater than 1000)	–
FAKLFAKAFKKAL-NH2 [P117, FAKLFAKAFKKAL-NH2]	200 µg/mL	100 µg/mL	200 µg/mL	> (> indicates greater than 1000)	> (> indicates greater than 1000)	> (> indicates greater than 1000)	> (> indicates greater than 1000)	> (> indicates greater than 1000)	> (> indicates greater than 1000)	> (> indicates greater than 1000)	> (> indicates greater than 1000)	> (> indicates greater than 1000)	–
FALKALKK-NH2 [P145]	100 µg/mL	200 µg/mL	200 µg/mL	> (> indicates greater than 1000)	> (> indicates greater than 1000)	240 µg/mL	> (> indicates greater than 1000)	> (> indicates greater than 1000)	> (> indicates greater than 1000)	> (> indicates greater than 1000)	> (> indicates greater than 1000)	> (> indicates greater than 1000)	–
FAKLF-NH2 [P129, FAKLF-NH2]	25 µg/mL	100 µg/mL	100 µg/mL	> (> indicates greater than 1000)	790 µg/mL	550 µg/mL	> (> indicates greater than 1000)	> (> indicates greater than 1000)	550 µg/mL	> (> indicates greater than 1000)	> (> indicates greater than 1000)	> (> indicates greater than 1000)	–
FALALKALKKA-NH2 [P176]	> (> indicates greater than 200 μg/mL)	> (> indicates greater than 200 μg/mL)	> (> indicates greater than 200 μg/mL)	–	–	–	–	–	–	> (> indicates greater than 1000)	–	–	–
KLAKKLAKLAKLAKAL-OH [P160, reference compound]	–	–	–	220 µg/mL	470 µg/mL	550 µg/mL	320 µg/mL	450 µg/mL	370 µg/mL	> (> indicates greater than 1000)	700 µg/mL	–	700 µg/mL
YAKLLAKLAKKAL-NH2 [P155, YAKLLAKLAKKAL-NH2]	> (> indicates greater than 200 μg/mL)	> (> indicates greater than 200 μg/mL)	> (> indicates greater than 200 μg/mL)	> (> indicates greater than 1000)	> (> indicates greater than 1000)	> (> indicates greater than 1000)	> (> indicates greater than 1000)	–	> (> indicates greater than 1000)	> (> indicates greater than 1000)	> (> indicates greater than 1000)	> (> indicates greater than 1000)	–
